Measurements reported in PMC8480901 (PLoS ONE, 2021).
“And” between values parts separate entries of the source, which are not always exact repeats. Identical values can stand only once. Like-named read-outs stand apart in the source and are kept apart here.

Legend:
[1] = Pharmacokinetics in plasma and epithelial lining fluid of mice after a single SC dose; assay type: in vivo, BALB/c mice; settings: mice; for AUC(0-t): read-out: AUC0-24h, mean±SEM; for Cmax: read-out: Cmax, mean±SEM
Procedure: Pharmacokinetic parameters were evaluated as previously described. […] Plasma samples were analyzed by liquid chromatography with […] mass spectrometry (Q Exactive Plus; Thermo Fisher Scientific).
Area under the curve (AUC) values were determined using the linear trapezoidal method.

[2] = system: human neutrophils; test: Cytotoxicity in human neutrophils (CellTiter Glo); assay type: cell-based; settings: ≤100 μM, cytotoxic if reduction from vehicle ≥20%
Procedure: For the chemotaxis and cytotoxicity evaluations, average relative light unit values were calculated from all untreated vehicle samples and, for each sample, percentage of vehicle value was calculated. The tested compound was considered cytotoxic if reduction from untreated vehicle was ≥20%.

[3] = system: J774.2 mouse macrophages; test: Cytotoxicity in J774.2 mouse macrophages (adenylate kinase release, ToxiLight); assay type: cell-based; settings: J774.2 cells; 100 μM
Procedure: (§1) The effect of t est compounds on cell viabilit y of J 774.2 macrophages and human PBMCs […]
(§2) was determined b y comp aring th e aden yl ate kinas e signal obtain ed in the p resence of diff er ent concentrations of compounds with those obtained in DMSO (vehicle) control. Signals were […]
(§3) divided,and the results were ex pressed as fold-change versus v ehicle con trol .

[4] = system: human PBMCs; test: Cytotoxicity in human PBMCs (adenylate kinase release, ToxiLight); assay type: cell-based; settings: PBMCs; ≤100 μM
Procedure: as §1, §2, §3

[5] = system: LPS-induced acute lung injury; settings: pretreatment in LPS-induced acute lung injury models; cited from earlier work
[6] = system: TNF-α, IL-6, IL-1β, GM-CSF, CXCL-1, CXCL-2, CCL-2 and MMP-9 in lung tissue; test: LPS-induced cytokines, chemokines and MMP-9 in mouse lung homogenates (Luminex, ELISA); settings: for CCL2 % reduction / CXCL1 % reduction / CXCL2 % reduction / GM-CSF % reduction / IL-1β % reduction / IL-6 % reduction / MMP9 % reduction / TNFα % reduction / CCL2 / CXCL1 / CXCL2 / GM-CSF / IL-1β / IL-6 / MMP9 / TNFα / CCL2 Mean / CXCL1, Mean / CXCL2, Mean / GM-CSF Mean / IL-1β Mean / IL-6 Mean / MMP9, Mean / TNFα Mean: lung homogenate, LPS; for CCL2 / CXCL1 / CXCL2 / GM-CSF / IL-1β / IL-6 / MMP9 / TNFα: individual animal, listed as Azi; for CCL2 Mean / CXCL1, Mean / CXCL2, Mean / GM-CSF Mean / IL-1β Mean / IL-6 Mean / MMP9, Mean / TNFα Mean: mean of 8
Procedure: To induce pulmonary neutrophilia, mice in the control group received intranasal (IN) 50 μL saline, and all other animals received 5 μg LPS/50 μL saline IN per mouse.
After bronchoalveolar lavage, lungs were removed, weighed, snap frozen, and stored at −80°C until analysis. To homogenize the tissue, the frozen lungs were thawed and placed in Precellys CK28 Hard Tissue tubes (BERTIN Instruments, Montigny-le-Bretonneux, France) in 1 mL PBS (Gibco, Life Technologies, Paisley, UK) supplemented with protease inhibitors (Halt™ Protease Inhibitor Cocktail [100×]; Thermo Fisher Scientific, Rockford, IL, USA). A Precellys homogenizer (BERTIN Instruments) was used, shaking at 6800 rpm for three 30-second pulses separated by 15-second pauses. After homogenization, samples were centrifuged at 18,000×g for 10 minutes at 4°C, and the supernatants were collected for analysis.
Concentrations of tumor necrosis factor (TNF)-α, IL-6, granulocyte-macrophage colony-stimulating factor (GM-CSF), chemokine (C-X-C motif) ligand (CXCL)-1, CXCL-2, and chemokine (C-C motif) ligand (CCL)-2 in mouse lung homogenates were analyzed with the Mouse Premixed Multi-Analyte Kit (R&D Systems, Minneapolis, MN, USA) per the manufacturer’s protocol and using a Luminex 200 System (Luminex Corporation, Austin, TX, USA). Cytokine and chemokine concentrations were determined from blank-corrected median fluorescence intensity of each sample via xPONENT® software (Luminex Corporation), interpolating from standard curves generated with a 5-parameter logistic curve-fit.
Mouse Total MMP (matrix metalloprotease)-9 and IL-1β/IL-1F2 DuoSet ELISA (enzyme-linked immunosorbent assay) kits (R&D Systems) were used to measure concentrations of MMP-9 and IL-1β, respectively, in lung homogenates per the manufacturer’s protocols. Absorbance at 450 nm was measured using the SpectraMax i3 (Molecular Devices, San Jose, CA, USA). Concentrations of MMP-9 and IL-1β in samples were determined by interpolation from standard curves.
Differences between treated versus vehicle groups were determined using the Mann-Whitney test and were considered statistically significant when P<0.05. Outliers in the analysis of cytokine and chemokine concentrations were identified using the Grubbs test. No criteria were set for inclusion/exclusion of animals during the experiment or data points during the analysis.

[7] = female, BALB/c, mouse, epithelial lining fluid (ELF), ELF, single 35 mg/kg SC
[8] = female, BALB/c, mouse, plasma, single 35 mg/kg SC
[9] = all doses (10, 30, 100 mg/kg SC)

## CC[C@H]1OC(=O)[C@H](C)[C@@H](O[C@H]2C[C@@](C)(OC)[C@@H](O)[C@H](C)O2)[C@H](C)[C@@H](O[C@@H]2O[C@H](C)C[C@H](N(C)C)[C@H]2O)[C@](C)(O)C[C@@H](C)CN(C)[C@H](C)[C@@H](O)[C@]1(C)O [Azithromycin]
[1]; ELF, single 35 mg/kg SC
  AUC0-24h/Dose, mean: 0.76 (μg∙h/mL)/(mg/kg)
[1]; female, BALB/c, mouse, epithelial lining fluid (ELF) / plasma, single 35 mg/kg SC, read-out: AUC ratio for ELF to plasma
  Kp: ~2
[1]; [7]
  Tmax: 15 min
  AUC(0-t): 26700 ± 5780 ng·h/mL
  Cmax: 2350 ± 1450 ng/mL
[1]; [8]
  Tmax: 4.8 min
  AUC(0-t): 11600 ± 1370 ng·h/mL
  Cmax: 2330 ± 830 ng/mL
[1]; single SC dose 35 mg/kg
  distribution from plasma to ELF (penetration into the lung compartment): rapid penetration
[1]; plasma, single 35 mg/kg SC
  AUC0-24h/Dose, mean: 0.33 (μg∙h/mL)/(mg/kg)
[2]
  cytotoxic effects: no cytotoxic effects
[3]
  cell viability: reduced
[4]
  cytotoxic effects: no cytotoxic effects
[5]
  neutrophil recruitment: significantly reduced
[6]; 100 mg/kg SC
  TNF-α concentrations in lung homogenate: no significant effect
[6]; 10 and 30 mg/kg SC
  TNF-α concentrations in lung homogenate: significant reductions
[6]; [9]
  IL-1β concentrations in lung homogenate: reduced
  MMP-9 levels in lung homogenate: not as pronounced as with lefamulin
  chemokines and GM-CSF in lung homogenate: significant but not as pronounced
[6]; all doses tested (10, 30, 100 mg/kg SC), vs vehicle control
  IL-6 concentrations in lung homogenate: reduced to a lesser extent
[6]; lowest dose (10 mg/kg SC)
  IL-1β concentrations in lung homogenate: significant reduction
[6]; 10 mg/kg
  CCL2 % reduction: 36%
  CXCL1 % reduction: 44%
  CXCL2 % reduction: 41%
  GM-CSF % reduction: 44%
  IL-1β % reduction: 13%
  IL-6 % reduction: 51%
  MMP9 % reduction: 16%
  TNFα % reduction: 61%
  CCL2: 4556.27 pg/mL and 3263.22 pg/mL and 1456.64 pg/mL and 3309.90 pg/mL and 1430.47 pg/mL and 5875.00 pg/mL and 1417.32 pg/mL and 3315.08 pg/mL
  CXCL1: 8286.02 pg/mL and 7278.90 pg/mL and 5769.98 pg/mL and 6100.99 pg/mL and 6284.84 pg/mL and 12400.64 pg/mL and 5305.93 pg/mL and 5666.95 pg/mL
  CXCL2: 7643.01 pg/mL and 7085.07 pg/mL and 4631.04 pg/mL and 5712.04 pg/mL and 6677.58 pg/mL and 11079.57 pg/mL and 4412.48 pg/mL and 8631.64 pg/mL
  GM-CSF: 139.66 pg/mL and 134.35 pg/mL and 75.54 pg/mL and 114.95 pg/mL and 86.88 pg/mL and 293.40 pg/mL and 92.13 pg/mL and 119.35 pg/mL
  IL-1β: 8824 pg/mL and 7408 pg/mL and 8108 pg/mL and 9841 pg/mL and 7312 pg/mL and 9969 pg/mL and 10254 pg/mL and 14453 pg/mL
  IL-6: 703.95 pg/mL and 429.86 pg/mL and 475.85 pg/mL and 521.70 pg/mL and 613.04 pg/mL and 952.23 pg/mL and 337.40 pg/mL and 749.27 pg/mL
  MMP9: 2413 pg/mL and 1880 pg/mL and 2467 pg/mL and 2045 pg/mL and 2015 pg/mL and 1705 pg/mL and 1966 pg/mL
  TNFα: 468.82 pg/mL and 365.25 pg/mL and 396.22 pg/mL and 281.21 pg/mL and 385.93 pg/mL and 406.49 pg/mL and 646.25 pg/mL and 400.08 pg/mL
  CCL2 Mean: 3078 pg/mL
  CXCL1, Mean: 7137 pg/mL
  CXCL2, Mean: 6984 pg/mL
  GM-CSF Mean: 132 pg/mL
  IL-1β Mean: 9521 pg/mL
  IL-6 Mean: 598 pg/mL
  MMP9, Mean: 2113 pg/mL
  TNFα Mean: 419 pg/mL
[6]; 30 mg/kg
  CCL2 % reduction: 89%
  CXCL1 % reduction: 62%
  CXCL2 % reduction: 66%
  GM-CSF % reduction: 77%
  IL-1β % reduction: 12%
  IL-6 % reduction: 89%
  MMP9 % reduction: 27%
  TNFα % reduction: 77%
  CCL2: 1476.16 pg/mL and 999.58 pg/mL and 556.20 pg/mL and 527.89 pg/mL and 1875.36 pg/mL and 690.08 pg/mL and 698.62 pg/mL and 781.98 pg/mL
  CXCL1: 6439.29 pg/mL and 6623.20 pg/mL and 4431.51 pg/mL and 4192.30 pg/mL and 6910.31 pg/mL and 3755.15 pg/mL and 2835.10 pg/mL and 5401.78 pg/mL
  CXCL2: 7207.48 pg/mL and 4769.86 pg/mL and 3209.88 pg/mL and 2485.22 pg/mL and 5075.82 pg/mL and 2214.38 pg/mL and 1941.44 pg/mL and 6143.97 pg/mL
  GM-CSF: 74.67 pg/mL and 53.86 pg/mL and 46.96 pg/mL and 43.52 pg/mL and 113.19 pg/mL and 45.24 pg/mL and 48.68 pg/mL and 57.31 pg/mL
  IL-1β: 7544 pg/mL and 10213 pg/mL and 8353 pg/mL and 7459 pg/mL and 10985 pg/mL and 8847 pg/mL and 13576 pg/mL and 10376 pg/mL
  IL-6: 510.25 pg/mL and 452.87 pg/mL and 220.67 pg/mL and 149.74 pg/mL and 314.17 pg/mL and 173.48 pg/mL and 475.85 pg/mL
  MMP9: 1204 pg/mL and 2421 pg/mL and 1943 pg/mL and 1913 pg/mL and 2288 pg/mL and 1939 pg/mL and 1874 pg/mL and 1816 pg/mL
  TNFα: 463.76 pg/mL and 597.19 pg/mL and 177.73 pg/mL and 146.70 pg/mL and 109.09 pg/mL and 202.71 pg/mL and 129.48 pg/mL
  CCL2 Mean: 951 pg/mL
  CXCL1, Mean: 5074 pg/mL
  CXCL2, Mean: 4131 pg/mL
  GM-CSF Mean: 60 pg/mL
  IL-1β Mean: 9669 pg/mL
  IL-6 Mean: 306 pg/mL
  MMP9, Mean: 1925 pg/mL
  TNFα Mean: 245 pg/mL
[6]; 100 mg/kg
  CCL2 % reduction: 80%
  CXCL1 % reduction: 24%
  CXCL2 % reduction: 11%
  GM-CSF % reduction: 67%
  IL-1β % reduction: 12%
  IL-6 % reduction: 8%
  MMP9 % reduction: 24%
  TNFα % reduction: 36%
  CCL2: 3799.67 pg/mL and 664.18 pg/mL and 1172.90 pg/mL and 962.12 pg/mL and 765.59 pg/mL and 1437.03 pg/mL and 877.71 pg/mL and 698.62 pg/mL
  CXCL1: 20237.00 pg/mL and 6969.24 pg/mL and 8733.13 pg/mL and 8755.54 pg/mL and 6380.45 pg/mL and 8935.00 pg/mL and 8591.33 pg/mL and 8085.43 pg/mL
  CXCL2: 18077.64 pg/mL and 6817.72 pg/mL and 11394.66 pg/mL and 9108.54 pg/mL and 6682.24 pg/mL and 11221.65 pg/mL and 9678.57 pg/mL and 10364.59 pg/mL
  GM-CSF: 162.70 pg/mL and 67.71 pg/mL and 85.13 pg/mL and 72.93 pg/mL and 64.24 pg/mL and 90.38 pg/mL and 45.24 pg/mL
  IL-1β: 6686 pg/mL and 8985 pg/mL and 9690 pg/mL and 9020 pg/mL and 8022 pg/mL and 10797 pg/mL and 10826 pg/mL and 12960 pg/mL
  IL-6: 2378.14 pg/mL and 464.36 pg/mL and 635.80 pg/mL and 669.91 pg/mL and 567.42 pg/mL and 703.95 pg/mL and 884.75 pg/mL and 1176.18 pg/mL
  MMP9: 1836 pg/mL and 1554 pg/mL and 2200 pg/mL and 2220 pg/mL and 2073 pg/mL and 2366 pg/mL and 1528 pg/mL and 2063 pg/mL
  TNFα: 660.88 pg/mL and 1126.83 pg/mL and 249.05 pg/mL and 935.87 pg/mL and 855.56 pg/mL and 270.54 pg/mL and 656.01 pg/mL and 675.49 pg/mL
  CCL2 Mean: 1297 pg/mL
  CXCL1, Mean: 9586 pg/mL
  CXCL2, Mean: 10418 pg/mL
  GM-CSF Mean: 83 pg/mL
  IL-1β Mean: 9623 pg/mL
  IL-6 Mean: 935 pg/mL
  MMP9, Mean: 1980 pg/mL
  TNFα Mean: 679 pg/mL
